pIC50: −log10 of the molar value.
The compounds below were run against T1, VLA-4 (Homo sapiens, UniProt P05556+P13612) (assay: Adhesion of Jurkat cells to immobilized VCAM-1 (domains 1-3)). Conditions: adhesion of CFSE-labeled Jurkat cells to recombinant human VCAM-1 (domains 1-3) coated plates; compounds as yielded by solid phase synthesis, purity about 40-90%; read-out: IC50.
T1 construct: host or cells: Jurkat clone E6-1
Assay type: cell-based
Procedure, shortened: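 CFSE-labelled Jurkat E6-1 cells in Tris buffer pH 7.4 with 2 mM MnCl2 were added to wells coated with insect-cell-expressed human VCAM-1 domains 1-3 (0.5 μg/ml coating solution); labelled cells were incubated for 30 min at 37 °C with the VLA-4 inhibitor.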

T1 sequence (P13612 34-1032): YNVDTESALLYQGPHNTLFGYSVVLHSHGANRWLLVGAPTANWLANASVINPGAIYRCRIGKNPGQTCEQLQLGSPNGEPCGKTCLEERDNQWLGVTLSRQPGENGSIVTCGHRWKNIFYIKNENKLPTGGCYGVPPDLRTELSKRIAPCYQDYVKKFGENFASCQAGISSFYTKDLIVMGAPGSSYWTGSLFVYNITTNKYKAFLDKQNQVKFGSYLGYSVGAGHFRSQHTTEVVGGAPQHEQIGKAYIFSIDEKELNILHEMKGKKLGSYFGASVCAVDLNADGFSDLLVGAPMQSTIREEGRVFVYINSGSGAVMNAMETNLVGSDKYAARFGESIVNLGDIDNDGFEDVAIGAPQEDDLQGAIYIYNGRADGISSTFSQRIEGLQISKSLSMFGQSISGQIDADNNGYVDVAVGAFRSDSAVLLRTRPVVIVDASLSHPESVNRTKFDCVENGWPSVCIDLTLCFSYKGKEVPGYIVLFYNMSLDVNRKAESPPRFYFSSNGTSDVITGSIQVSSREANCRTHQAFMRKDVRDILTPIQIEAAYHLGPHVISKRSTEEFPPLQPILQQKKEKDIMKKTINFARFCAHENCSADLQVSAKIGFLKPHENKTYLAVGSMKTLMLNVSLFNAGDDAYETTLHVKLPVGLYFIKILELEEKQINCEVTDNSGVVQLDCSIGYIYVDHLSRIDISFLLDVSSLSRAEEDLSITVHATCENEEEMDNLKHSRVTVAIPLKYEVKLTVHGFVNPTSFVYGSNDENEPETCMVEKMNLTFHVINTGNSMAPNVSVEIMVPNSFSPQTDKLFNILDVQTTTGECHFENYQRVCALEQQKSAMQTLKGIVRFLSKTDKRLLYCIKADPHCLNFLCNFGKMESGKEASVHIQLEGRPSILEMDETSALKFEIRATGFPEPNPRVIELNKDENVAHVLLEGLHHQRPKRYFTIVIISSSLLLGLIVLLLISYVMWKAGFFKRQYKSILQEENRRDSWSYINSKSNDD
T1 sequence (P05556 21-798): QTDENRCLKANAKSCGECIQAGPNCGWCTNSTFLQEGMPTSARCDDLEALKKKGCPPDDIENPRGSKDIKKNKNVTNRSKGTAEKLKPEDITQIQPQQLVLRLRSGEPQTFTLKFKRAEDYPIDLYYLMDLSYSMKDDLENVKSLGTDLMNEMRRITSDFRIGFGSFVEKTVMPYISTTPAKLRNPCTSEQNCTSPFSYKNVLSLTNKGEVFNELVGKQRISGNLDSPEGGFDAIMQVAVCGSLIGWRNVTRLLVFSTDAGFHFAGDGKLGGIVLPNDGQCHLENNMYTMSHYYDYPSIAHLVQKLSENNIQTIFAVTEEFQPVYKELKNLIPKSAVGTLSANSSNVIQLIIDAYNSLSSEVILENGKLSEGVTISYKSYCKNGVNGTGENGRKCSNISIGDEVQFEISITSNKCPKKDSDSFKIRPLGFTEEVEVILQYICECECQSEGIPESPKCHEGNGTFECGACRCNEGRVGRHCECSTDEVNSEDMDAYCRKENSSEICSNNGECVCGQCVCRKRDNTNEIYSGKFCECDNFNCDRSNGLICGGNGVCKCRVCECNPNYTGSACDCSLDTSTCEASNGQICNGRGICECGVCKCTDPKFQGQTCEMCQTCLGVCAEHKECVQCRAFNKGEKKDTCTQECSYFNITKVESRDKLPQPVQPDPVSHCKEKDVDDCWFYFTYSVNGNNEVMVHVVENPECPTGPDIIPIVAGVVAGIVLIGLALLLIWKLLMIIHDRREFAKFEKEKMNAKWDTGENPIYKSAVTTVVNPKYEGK

**Q.** `CN1CCN(C(=O)Nc2ccc(C[C@H](NC(=O)C3CCCN(c4ncnc(N5CCCCCC5)c4F)C3)C(=O)O)cc2)CC1` (stereo partly shown) [Example 5.20] was tested. Which pIC50 did it give?
**A.** The pIC50 was 5.70 to 6.30.

**Q.** With `O=C(N[C@@H](Cc1ccc(NC(=O)N2CCOCC2)cc1)C(=O)O)C1CCCN(c2ncnc(N3CCCCCC3)c2F)C1` (stereo partly shown) [Example 5.21] as the compound, how does the pIC50 read?
**A.** The pIC50 was 5.70 to 6.30.

**Q.** With `O=C(N[C@@H](Cc1ccc(NC(=O)N2CCOCC2)cc1)C(=O)O)C1CCCN(c2ncnc(NC3CCN(Cc4ccccc4)CC3)c2F)C1` (stereo partly shown) [Example 5.22] as the compound, how does the pIC50 read?
**A.** The pIC50 was 5.00 to 5.70.

**Q.** How did the pIC50 turn out when `O=C(N[C@@H](Cc1ccc(NC(=O)N2CCN(c3ccccc3)CC2)cc1)C(=O)O)C1CCCN(c2ncnc(NC3CCN(Cc4ccccc4)CC3)c2F)C1` (stereo partly shown) [Example 5.23] was run?
**A.** Its pIC50 is 5.70 to 6.30.

**Q.** `CN1CCN(C(=O)Nc2ccc(C[C@H](NC(=O)C3CCCN(c4ncnc(NC5CCCC5)c4F)C3)C(=O)O)cc2)CC1` (stereo partly shown) [Example 5.24] was tested. Which pIC50 did it give?
**A.** Its pIC50 is 5.00 to 5.70.

**Q.** With `CN1CCN(C(=O)Nc2ccc(C[C@H](NC(=O)C3CCCN(c4ncnc(NCCc5ccccc5)c4F)C3)C(=O)O)cc2)CC1` (stereo partly shown) [Example 5.25] as the compound, how does the pIC50 read?
**A.** Its pIC50 is 5.70 to 6.30.

**Q.** How did the pIC50 turn out when `O=C(N[C@@H](Cc1ccc(NC(=O)N2CCN(c3ccccc3)CC2)cc1)C(=O)O)C1CCCN(c2ncnc(NCCc3ccccc3)c2F)C1` (stereo partly shown) [Example 5.26] was run?
**A.** The pIC50 was 5.00 to 5.70.

**Q.** How did the pIC50 turn out when `CN1CCN(C(=O)Nc2ccc(C[C@H](NC(=O)C3CCCN(c4ncnc(N5CCc6ccccc6C5)c4F)C3)C(=O)O)cc2)CC1` (stereo partly shown) [Example 5.27] was run?
**A.** Its pIC50 is 5.00 to 5.70.

**Q.** `O=C(N[C@@H](Cc1ccc(NC(=O)N2CCOCC2)cc1)C(=O)O)C1CCCN(c2ncnc(NCc3cccnc3)c2F)C1` (stereo partly shown) [Example 5.28] was tested. Which pIC50 did it give?
**A.** The pIC50 was 5.70 to 6.30.

**Q.** With `CN1CCN(C(=O)Nc2ccc(C[C@H](NC(=O)C3CCCN(c4ncnc(NCc5cccnc5)c4F)C3)C(=O)O)cc2)CC1` (stereo partly shown) [Example 5.29] as the compound, how does the pIC50 read?
**A.** Its pIC50 is 5.00 to 5.70.

**Q.** `O=C(N[C@@H](Cc1ccc(NC(=O)N2CCN(c3ccccc3)CC2)cc1)C(=O)O)C1CCCN(c2ncnc(NCc3cccnc3)c2F)C1` (stereo partly shown) [Example 5.30] was tested. Which pIC50 did it give?
**A.** The pIC50 was 5.70 to 6.30.

**Q.** How did the pIC50 turn out when `CN1CCN(C(=O)Nc2ccc(C[C@H](NC(=O)C3CCCN(c4ncnc(NCc5ccncc5)c4F)C3)C(=O)O)cc2)CC1` (stereo partly shown) [Example 5.31] was run?
**A.** Its pIC50 is 5.70 to 6.30.

**Q.** With `CN1CCN(C(=O)Nc2ccc(C[C@H](NC(=O)C3CCCN(c4ncnc(NCC5CCNCC5)c4F)C3)C(=O)O)cc2)CC1` (stereo partly shown) [Example 5.32] as the compound, how does the pIC50 read?
**A.** Its pIC50 is 5.70 to 6.30.

**Q.** `CN1CCN(C(=O)Nc2ccc(C[C@H](NC(=O)C3CCCN(c4ncnc(NCC5CCCCC5)c4F)C3)C(=O)O)cc2)CC1` (stereo partly shown) [Example 5.33] was tested. Which pIC50 did it give?
**A.** The pIC50 was 5.00 to 5.70.

**Q.** `CN1CCN(C(=O)Nc2ccc(C[C@H](NC(=O)C3CCCN(c4ncnc(N)c4F)C3)C(=O)O)cc2)CC1` (stereo partly shown) [Example 5.34] was tested. Which pIC50 did it give?
**A.** The pIC50 was ≥ 6.30.

**Q.** With `O=C(N[C@@H](Cc1ccc(NC(=O)N2CCOCC2)cc1)C(=O)O)C1CCCN(c2ncnc(NCC3CCCCC3)c2F)C1` (stereo partly shown) [Example 5.35] as the compound, how does the pIC50 read?
**A.** The pIC50 was ≥ 6.30.

**Q.** `CN(c1ncnc(N2CCCC(C(=O)N[C@@H](Cc3ccc(NC(=O)N4CCOCC4)cc3)C(=O)O)C2)c1F)C1CCCCC1` (stereo partly shown) [Example 5.36] was tested. Which pIC50 did it give?
**A.** The pIC50 was 5.70 to 6.30.

**Q.** With `O=C(N[C@@H](Cc1ccc(NC(=O)N2CCN(c3ccccc3)CC2)cc1)C(=O)O)C1CCCN(c2ncnc(NCc3ccncc3)c2F)C1` (stereo partly shown) [Example 5.37] as the compound, how does the pIC50 read?
**A.** Its pIC50 is 5.70 to 6.30.

**Q.** With `CN(c1ncnc(N2CCCC(C(=O)N[C@@H](Cc3ccc(NC(=O)N4CCc5ccccc5C4)cc3)C(=O)O)C2)c1F)C1CCCCC1` (stereo partly shown) [Example 5.38] as the compound, how does the pIC50 read?
**A.** The pIC50 was 5.70 to 6.30.

**Q.** `O=C(N[C@@H](Cc1ccc(NC(=O)N2CCN(c3ccccc3)CC2)cc1)C(=O)O)C1CCCN(c2ncnc(NCCc3ccccn3)c2F)C1` (stereo partly shown) [Example 5.39] was tested. Which pIC50 did it give?
**A.** Its pIC50 is 5.70 to 6.30.

**Q.** With `CN1CCN(c2ncnc(N3CCCC(C(=O)N[C@@H](Cc4ccc(NC(=O)N5CCc6ccccc6C5)cc4)C(=O)O)C3)c2F)CC1` (stereo partly shown) [Example 5.40] as the compound, how does the pIC50 read?
**A.** The pIC50 was 5.70 to 6.30.

**Q.** `CC1CCCCN1c1ncnc(N2CCCC(C(=O)N[C@@H](Cc3ccc(NC(=O)N4CCc5ccccc5C4)cc3)C(=O)O)C2)c1F` (stereo partly shown) [Example 5.41] was tested. Which pIC50 did it give?
**A.** The pIC50 was 5.70 to 6.30.

**Q.** How did the pIC50 turn out when `Nc1ncnc(N2CCCC(C(=O)N[C@@H](Cc3ccc(NC(=O)N4CCN(c5ccccc5)CC4)cc3)C(=O)O)C2)c1F` (stereo partly shown) [Example 5.42] was run?
**A.** The pIC50 was ≥ 6.30.

**Q.** How did the pIC50 turn out when `CN(c1ncnc(N2CCCC(C(=O)N[C@@H](Cc3ccc(NC(=O)N4CCN(c5ccccc5)CC4)cc3)C(=O)O)C2)c1F)C1CCCCC1` (stereo partly shown) [Example 5.43] was run?
**A.** The pIC50 was 5.70 to 6.30.

**Q.** How did the pIC50 turn out when `O=C(N[C@@H](Cc1ccc(NC(=O)N2CCc3ccccc3C2)cc1)C(=O)O)C1CCCN(c2ncnc(NCc3ccncc3)c2F)C1` (stereo partly shown) [Example 5.44] was run?
**A.** The pIC50 was 5.70 to 6.30.

**Q.** With `CN(Cc1ccccc1)c1ncnc(N2CCCC(C(=O)N[C@@H](Cc3ccc(NC(=O)N4CCOCC4)cc3)C(=O)O)C2)c1F` (stereo partly shown) [Example 5.45] as the compound, how does the pIC50 read?
**A.** Its pIC50 is 5.70 to 6.30.

**Q.** With `COCCN(C)c1ncnc(N2CCCC(C(=O)N[C@@H](Cc3ccc(NC(=O)N4CCN(c5ccccc5)CC4)cc3)C(=O)O)C2)c1F` (stereo partly shown) [Example 5.46] as the compound, how does the pIC50 read?
**A.** Its pIC50 is 5.70 to 6.30.

**Q.** `O=C(N[C@@H](Cc1ccc(NC(=O)N2CCOCC2)cc1)C(=O)O)C1CCCN(c2ncnc(NCc3ccccn3)c2F)C1` (stereo partly shown) [Example 5.47] was tested. Which pIC50 did it give?
**A.** Its pIC50 is 5.70 to 6.30.

From patent US6794386B2, “β-amino acid compounds as integrin antagonists” (Bayer Aktiengesellschaft, priority 2000, dated 2004)
